Laboratory results: patent publication US6989263B1, “Method for identifying and using compounds that inactivate HIV-1 and other retroviruses by attacking highly conserved zinc fingers in the viral nucleocapsid protein” (The United States of America as represented by the …, priority 1994, dated 2006)
“Also recorded” adds a separate entry of the source. Where two headings read alike, the source gives them in different places.

Legend:
[1] = cited from earlier work
[2] = target: T1, HIV NC protein in intact virus (Human immunodeficiency virus type 1 group M subtype B, UniProt P05888); experiment: Cross-linking of NC protein in intact HIV (non-reducing gel-mobility shift, western blot); type: biochemical, HIV-1; conditions: for X-link T-½ (min), HIV NC protein (top number): intact HIV generally 12.5 μM, reagent generally 25 μM
T1 construct: endogenous in cells; host or cells: intact HIV virions
Excerpt: Purified concentrated retrovirus and antisera against the purified NC protein of the virus can be used to test the ability of a specific compound to penetrate the virus and react with the NC protein by forming disulfide complexes in the core of the virus. The compound is mixed with the whole retrovirus under reaction conditions appropriate for the compound. The virus is then removed from the reagent by centrifugation and disrupted in, e.g, standard SDS-PAGE sample buffer with (reduced) and without (non-reduced) 2-mercaptoethanol. The viral proteins are then separated by standard SDS-PAGE and the sample examined for the presence or absence of the monomeric NC protein in the non-reduced sample. Depending upon the virus used in the experiment and the conditions of electrophoresis, the NC protein can be visualized by protein staining methods, or by immuno-blot (e.g., western) methods. Compounds which react with the NC protein by attacking the zinc finger complexes and forming disulfide cross-linked products (i.e., which generate multimers in the mobility shift assay) inactivate the virus. Thus, compounds of interest (i.e., those which cause cross-linking) reduced the amount of monomeric NC protein detected.
In order to determine whether HIV-1MN was inactivated by NOBA, the virus was incubated with varying concentrations of NOBA (3.0, 0.3, 0.03 and 0 mM) as in Table 1. The reaction products were pelleted by centrifugation, and separated by SDS-PAGE under reducing (2% 2-mercaptoethanol, panel A), or non-reducing conditions (panel B). p7NC was visualized by immunoblot analysis using monospecific rabbit antisera to the purified NC proteins as per L. E. Henderson et al., J. Virol. 66:1856 (1992).
Disulfide reagents were further tested for their ability to disrupt NC structure in the virus, based on their ability to cause inter-NC cysteine disulfide bonds (i.e., cross-linking) in the intact virus. The formation of inter-NC cysteine disulfides creates NC multimers, which migrate through a non-reducing gel at a different rate than NC monomers, as described above. Intact HIV virus (generally 12.5 μM) was exposed to the specified reagent (generally 25 μM) for varying lengths of time and electrophoresed through a non-reducing SDS-polyacrylamide gel. HIV NC monomers and multimers were visualized by western blot analysis as described above in Example 3. The approximate time required to cross-link one-half of the NC proteins in the virus at the specified reaction conditions was then determined. […] The top number in the cells of the X-link column in Table 2 refers to the approximate time in minutes required for one-half of the HIV NC proteins to become cross-linked.

HIV-1 [3] = experiment: microbe, parasite or virus in culture; conditions: Human immunodeficiency virus 1, read-out: TCID (Virus): concentration of reagent required to inactivate half of a standardized number of HIV-1 virus particles
Experimental: (§1) Concomitantly, the drug treated virions are tested for activity. The virions are suspended in media (rather than solubilized) and added to target cells. The cultures are then examined to determine whether the virions are still active.

p7NC = target: T2, p7NC (Human immunodeficiency virus type 1 group M subtype B, UniProt P05888); experiment: HPLC analysis of reaction products of purified p7NC with reagent; type: biochemical, HIV-1; design: key to Protein (HPLC): reaction products / Protein (HPLC): reaction rate: formation of non-native, intra-protein disulfide links (designated “Disulfides”); some of the reagents form adducts with the cysteine residues as well (designated “Adducts”); slow: “Slow” reactions are those in which greater than 10% of the p7NC protein remained in its native form after the 10 minute incubation with reagent; very slow: “Very slow” reactions are those in which greater than 50% of the p7NC protein remained in its native form after the 10 minute incubation with reagent; fast: “Fast” reactions result in complete transformation of the p7NC protein to non-native conformations during the 10 minute incubation period; conditions: for Protein (HPLC): reaction products: 63 μM p7NC, 6 reagent : 1 protein, 10 minutes
T2 construct: The NC protein of HIV-1 (MN) p7NC was expressed in E. coli; made in house; host or cells: E. coli (vector pMAL-c)
Excerpt: Highly purified retroviral NC proteins can be produced by expression from vectors generated through recombinant DNA technology. These proteins when reconstituted with zinc (see, Summers, et al., Protein Science 1:563–567 (1992) for methods), provide the source of the NC proteins containing the zinc fingers that are the targets for attack by the compounds of this invention. When the zinc fingers in NC proteins react with identified compounds, the reaction produces a covalent change in the NC protein, and the modified protein can be separated from the unreacted protein by, for example, reversed phase HPLC.
Samples of p7NC and apo-p7 were reacted with varying amounts of cupric chloride and resulting products separated by HPLC. The reactions were carried out using 44.3 μM protein (p7NC or apo-p7) in 0.1 M Tris-HCl, pH 7.4, for 6 minutes at room temperature with varying concentrations of CuCl2 to achieve the indicated ratios of reactants, in a final volume of 0.7 ml. Chromatography was carried out on the resulting products at pH 2 (0.05% trifluoroacetic acid) on μBondapak™ C-18 (3.9×300 mm) at 1.0 ml/minute using an acetonitrile gradient (0–17%, 20 ml; 17–20%, 60 ml; 20–60%, 10 ml). Elution positions of unreacted protein (p7NC or apo-p7) are indicated as apo-p7.
A two-fold excess of NOBA was reacted with p7NC, and the products were separated by HPLC (FIG. 10) as described above for Cu^+2 and p7NC. Elution positions for the reactants (NOBA and unreacted p7NC) and products, reacted p7NC, NOBA, HABA and AzoxyBA are indicated and an elution profile is included in FIG. 10. NOBA and AzoxyBA were supplied by Octamer, Inc. (Mill Valley, Calif.) and used as HPLC standards.
The disulfide reagent of choice (each available from the Aldrich Chemical Company (Milwaukee, Wis.)) was incubated for 10 minutes with purified p7NC protein (63 μM) at a ratio of 6 molecules of reagent to 1 molecule of NC protein (there are 6 cysteine thiols per NC protein). The formation of non-native protein conformations was monitored by HPLC as described above. […] Generally, the inactivation proceeds by formation of non-native, intra-protein disulfide links (designated “Disulfides”), but some of the reagents form adducts with the cysteine residues as well (designated “Adducts”). “Slow” reactions are those in which greater than 10% of the p7NC protein remained in its native form after the 10 minute incubation with reagent. “Very slow” reactions are those in which greater than 50% of the p7NC protein remained in its native form after the 10 minute incubation with reagent. “Fast” reactions result in complete transformation of the p7NC protein to non-native conformations during the 10 minute incubation period.

[4] = target: T3, p11 Nucleocapsid Protein (p11NC) (Equine infectious anemia virus, UniProt P69732); experiment: Cross-linking of p11NC in intact EIAV particles (gel-mobility shift); type: biochemical; conditions: intact EIAV (50 μM), 4× the HIV assay concentrations
T3 construct: a variety of disulfide reagents cross-link the p11NC protein in intact viral particles; endogenous in cells; host or cells: intact EIAV particles
T3 sequence (P69732 360-435): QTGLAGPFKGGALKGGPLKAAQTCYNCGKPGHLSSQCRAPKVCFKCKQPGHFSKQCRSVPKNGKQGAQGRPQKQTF
Excerpt: Essentially the same strategy was employed to analyze the ability of the various disulfide reagents to cross-link the p11 Nucleocapsid Protein (p11NC) in intact Equine Infectious Anemia Virus (EIAV) particles. The advantages of working with EIAV include the fact that it is not a human pathogen, and that the p11NC protein can be visualized by simple coomassie-blue staining after performing the gel-mobility shift assay (rather than by western blotting as for HIV) described above. The reaction conditions were essentially the same for the EIAV assays as for the HIV assays described above, except that the concentration of virus and disulfide reagent was 4× the concentrations used in the HIV assay above. The second number in each cell in the X-link column in Table 2 represents the time required to cross-link one-half of the p11NC protein in the intact viral particles. […] The bottom number in each cell of the X-link column, unless otherwise indicated, represents the concentration of EIAV used in the assay. Blank cells throughout Table 2 indicate that the compound has yet to be tested for the specified property.

HIV-1 [5] = conditions: PCR and viral inactivation assays
Experimental: as §1

[6] = tested on: SSFV (spleen focus forming virus); experiment: Survival of mice infected with SSFV; type: in vivo; conditions: oral doses, versus infected untreated mice
Excerpt: Mice susceptible to the retrovirus SSFV (spleen focus forming virus) when injected with the virus die within 35–40 days as a result of virally-mediated transformation of cells of the spleen.

SMILES | Toxicity (LD-50, mouse) ([1]; oral) | cross-linking of the HIV-1 NC protein in intact virus (gel-mobility shift), in words [2] | X-link T-½ (min), HIV NC protein (top number) [2] | IC50 (HIV-1 [3]) | Protein (HPLC): reaction products (p7NC) | X-link T-½ (min), EIAV p11NC (second number) [4] | inactivation of HIV-1 virus / infectivity, in words (HIV-1 [5]) | inactivation of HIV-1 virus / infectivity, in words (HIV-1 [5]; listed as Tetraethylthiuram disulfide) | Toxicity (LD-50, mouse) ([1]; IP) | survival after SSFV infection [6] | reaction with purified p7NC (HPLC), in words (p7NC)
S=C(SSC(=S)N1CCCCC1)N1CCCCC1 [Dicyclopentamethylenethiuram Disulfide] | 2870 mg/kg | caused a cross-linking of the HIV-1 NC protein | <<15 min | 4 µM | Disulfides | ~10 min | – | – | – | – | –
O=C(SSC(=O)c1ccccc1)c1ccccc1 [Benzoyl Disulfide] | – | – | – | 68 µM | Disulfides; also recorded: Adducts | – | – | – | – | – | –
CN(C)c1ccc(SSc2ccc(N(C)C)cc2)cc1 [4-(dimethylamino)phenyl disulfide] | – | – | – | 17.5 µM | (negative) | – | – | – | – | – | –
CCN(CC)C(=S)SSC(=S)N(CC)CC [Tetraethylthiuram Disulfide, reference compound] | 1980 mg/kg | – | ~15 min | 66 µM | Disulfides | ~15 min | inactivates the virus | inactivate HIV-1 virus | 75 mg/kg | survived SSFV infection significantly longer | reacts with p7NC to form oxidized p7 (disulfides)
